Assays:
[1] = tested on: glioma cell line U87ΔEGFR; assay: Delivery of complex into a cancer cell, boron concentration in the cell by ICP-AES; format: cell-based, human; settings: BSH 2 mM alone or with A6K (hydrochloride salt) 200 μM, 37° C. for 24 hours
Description: Mixing times were 10 minutes, 30 minutes, and 180 minutes. The obtained complex was diluted (pH 7.1 to 7.3) with PBS and added to a glioma cell line U87ΔEGFR in a petri dish. […] Each cell sample obtained by incubating, with the complex, at 37° C. for 3 hours, 12 hours, and 24 hours was subjected to ICP-AES thereby to measure a boron concentration in the cell. […] The incubation time of 12 hours was sufficient. […] The time for mixing with stirring of 10 minutes was sufficient. Increases in the BSH amounts in the cell were detected as an incubation time was extended.
A6R (TFA salt) and BSH were mixed with stirring by the same method as the method described in the above (1) to prepare a complex. The obtained complex was diluted (pH 7.1 to 7.3) with PBS and added to a glioma cell line U87ΔEGFR in a petri dish. Each cell sample obtained by incubating, with the complex, at 37° C. for 6 hours, 12 hours, and 24 hours was subjected to ICP-AES thereby to measure a boron concentration in the cell.
The complex containing A6K (hydrochloride salt) and BSH obtained in the above (1) (a molar ratio of A6K (hydrochloride salt):BSH was 1:10) was added to a glioma cell line U87ΔEGFR in a similar procedure to that described in Example 2 (2). The complex was added in an amount in such a way that final concentrations of A6K (hydrochloride salt) and BSH were as shown in FIG. 11. […]

U87ΔEGFR brain tumor = assay: Tumor-specific introduction of BSH in brain tumor model animal, anti-BSH immunohistostaining; format: in vivo, mouse; settings: 200 μL tail vein, BSH 20 mM (with A6K 2 mM in complex); 12 hours after administration
Description: Animals used in the present experiment were bred, housed and used in accordance with the procedure approved (approval code: OKU-2016475) by the Animal Care and Use Committee, Okayama University. Tumor-bearing model mice (BALB/C nu/nu, female, 6 to 8 weeks of age, 25 g, Japan SLC, Inc., Shizuoka) were created by directly injecting 3 μL of a U87ΔEGFR cell suspension (1×10^5 cells/μL) into the brain. Two weeks later, 200 μL of the complex containing A6K and BSH (A6K 2 mM/BSH 20 mM) and 200 μL of BSH 20 mM as control experiments were respectively administered from the tail vein (given that a mouse body weight was 20 g, A6K-HCl was converted to 8 mg/kg and BSH was converted to 33.4 mg/kg.)
The complex used in the experiment (the compound described in Example 4 (1)) was prepared as follows. 70 μL of MQ water was added to 70 μL of A6K 10 mM to adjust to A6K 5 mM. […]
Twelve hours after administration, the mouse brain was embedded using an embedding medium for a frozen tissue section, tissue tek O.C.T compound. […] After washing, the section was immersed for 2 hours at room temperature in a solution of a donkey anti-mouse antibody (Life Technologies) labelled with Alexa-Fluor 488 (green fluorescence) (20 μg/mL) and a solution of a goat anti-rabbit antibody (Life Technologies) labelled with Alexa-Fluor 555 (red fluorescence) (2 μg/mL). […]

## mercaptoundecahydrododecaborate [BSH]
[1]
  intracellular boron concentration: 595.2±105.1 ng/10^6 cells
U87ΔEGFR brain tumor
  location of BSH relative to tumor tissue (HLA-A positive): not different between tumor tissues and normal brain tissues
  presence of BSH in brain tissue (green fluorescence): weak

Reference: patent US10940210B2, “BSH complex for boron neutron capture therapy” (National University Corporation Okayama University, priority 2016, dated 2021)
